Experimental data reported in patent US10966426B2, “Herbicidal compositions comprising phenylpyrimidines” (BASF SE, priority 2016, dated 2021).
Where “and” joins values, the source holds several entries; their conditions need not be identical. Equal entries are not always repeated.

Legend:
Assay type in all cases: in vivo
Avena fatua [1] = experiment: greenhouse pre-emergence treatment, AVEFA
Outline: (§1)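 Damage rated on 0 to 100 scale (0 = normal growth, 100 = no emergence or total above-ground kill) after 2-4 weeks at species-dependent 10-25° C or 20-35° C. Seeds sown per species in loamy sand, ~3.0% humus, treated right after sowing with aqueous spray of single actives or 10% emulsion-concentrate mixtures, then hooded; additive expectation by Colby.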

Ambrosia elatior = experiment: greenhouse pre-emergence treatment, AMBEL
Outline: as §1

Alopecurus myosuroides = experiment: greenhouse post-emergence treatment, ALOMY
Outline: (§2)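 Plants were grown in pots of loamy sand with approximately 3.0% humus, either sown directly or transplanted as seedlings a few days before treatment, and sprayed with water-based treatments. They were kept at 10-25° C. or 20-35° C. depending on species and rated visually after 2 to 4 weeks on a 0–100 scale (100 = no emergence or complete destruction of above-ground parts).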

Papaver rhoeas = experiment: greenhouse post-emergence treatment, PAPRH
Outline: (§3)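 Foliar application to greenhouse-grown plants 3–15 cm tall in humus-containing loamy sand; response assessed on a 0–100 scale after 2–4 weeks, with Colby's E=X+Y−(X·Y/100) as the additive expectation.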

Avena fatua [2] = experiment: greenhouse post-emergence treatment, AVEFA
Outline: as §2

Matricaria chamomilla = experiment: greenhouse post-emergence treatment, MATCH
Outline: as §3

[3] = 20 DAT, AVEFA, Ex. 26 solo 125 gai/ha
[4] = AVEFA, Ex. 26 solo 125 gai/ha, 20 DAT
[5] = AVEFA, Ex. 26 solo 250 gai/ha, 20 DAT
[6] = 20 DAT, Ex. 26 solo 62.5 gai/ha

Compound: COC(=O)c1nc(C2CC2)ncc1-c1ccc(F)cc1Cl [Ex. 26]
- % activity (Avena fatua [1]; [3]): 65% and 70%
- % activity (Avena fatua [1]; 20 DAT, Ex. 26 solo 125 gai/ha): 65%
- % activity (Avena fatua [1]; 21 DAT, AVEFA, Ex. 26 solo 250 gai/ha): 70%
- % activity (Avena fatua [1]; AVEFA, 20 DAT, solo Ex. 26 62.5 gai/ha): 55%
- % activity (Avena fatua [1]; AVEFA, 20 DAT, solo Ex. 26 62.5 gai/ha (Table X68)): 45%
- % activity (Avena fatua [1]; AVEFA, 20 DAT, solo Ex. 26 125 gai/ha): 75%
- % activity (Avena fatua [1]; AVEFA, 20 DAT, solo Ex. 26 125 gai/ha (Table X68)): 65%
- % activity (Avena fatua [1]; AVEFA, Ex. 26 solo 62.5 gai/ha, 20 DAT): 40%
- % activity (Avena fatua [1]; [4]): 65%
- % activity (Avena fatua [1]; [5]): 75%
- % activity (Avena fatua [1]; Ex. 26 solo, 31.25 gai/ha, 20 DAT, AVEFA): 25% and 20%
- % activity (Avena fatua [1]; Ex. 26 solo, 62.5 gai/ha, 20 DAT, AVEFA): 55%
- % activity (Ambrosia elatior; 20 DAT, AMBEL, Ex. 26 solo 31.25 gai/ha): 0%
- % activity (Ambrosia elatior; 20 DAT, AMBEL, Ex. 26 solo 62.5 gai/ha): 0%
- % activity (Ambrosia elatior; 20 DAT, AMBEL, Ex. 26 solo 125 gai/ha): 0%
- % activity (Ambrosia elatior; 20 DAT, AMBEL, Ex. 26 solo 250 gai/ha): 0%
- % activity (Ambrosia elatior; 20 DAT, Ex. 26 solo 31.25 gai/ha): 0%
- % activity (Ambrosia elatior; [6]): 0%
- % activity (Ambrosia elatior; 20 DAT, Ex. 26 solo 125 gai/ha): 0%
- % activity (Ambrosia elatior; 21 DAT, AMBEL, Ex. 26 solo 250 gai/ha): 0%
- % activity (Ambrosia elatior; AMBEL, 20 DAT, solo Ex. 26 62.5 gai/ha): 0%
- % activity (Ambrosia elatior; AMBEL, 20 DAT, solo Ex. 26 125 gai/ha): 0%
- % activity (Ambrosia elatior; AMBEL, Ex. 26 solo 31.25 gai/ha, 20 DAT): 0%
- % activity (Ambrosia elatior; AMBEL, Ex. 26 solo 62.5 gai/ha, 20 DAT): 0%
- % activity (Ambrosia elatior; AMBEL, Ex. 26 solo 125 gai/ha, 20 DAT): 0%
- % activity (Ambrosia elatior; Ex. 26 solo 250 gai/ha, 21 DAT, AMBEL): 0%
- % activity (Ambrosia elatior; Ex. 26 solo, 31.25 gai/ha, 20 DAT, AMBEL): 0%
- % activity (Ambrosia elatior; Ex. 26 solo, 62.5 gai/ha, 20 DAT, AMBEL): 0%
- % activity (Ambrosia elatior; Ex. 26 solo, 125 gai/ha, 20 DAT, AMBEL): 0%
- % activity (Alopecurus myosuroides; 20 DAT, ALOMY, Ex. 26 solo 62.5 gai/ha): 65%
- % activity (Alopecurus myosuroides; 20 DAT, ALOMY, Ex. 26 solo 125 gai/ha): 75%
- % activity (Alopecurus myosuroides; 20 DAT, ALOMY, Ex. 26 solo 250 gai/ha): 75%
- % activity (Alopecurus myosuroides; 21 DAT, Ex. 26 solo 125 gai/ha): 65%
- % activity (Alopecurus myosuroides; 21 DAT, Ex. 26 solo 250 gai/ha): 75%
- % activity (Alopecurus myosuroides; ALOMY, Ex. 26 solo 125 gai/ha, 20 DAT): 75% and 70%
- % activity (Alopecurus myosuroides; ALOMY, Ex. 26 solo 250 gai/ha, 20 DAT): 75%
- % activity (Alopecurus myosuroides; Ex. 26 solo 62.5 gai/ha, 21 DAT, ALOMY): 40%
- % activity (Alopecurus myosuroides; Ex. 26 solo 125 gai/ha, 20 DAT, ALOMY (pinoxaden table)): 73%
- % activity (Alopecurus myosuroides; Ex. 26 solo 125 gai/ha, 20 DAT, ALOMY (pyridate table)): 70%
- % activity (Alopecurus myosuroides; Ex. 26 solo 250 gai/ha, 20 DAT, ALOMY (pyridate table)): 75%
- % activity (Papaver rhoeas; [6]): 0%
- % activity (Papaver rhoeas; 20 DAT, Ex. 26 solo 125 gai/ha): 0%
- % activity (Papaver rhoeas; 20 DAT, Ex. 26 solo 250 gai/ha): 0%
- % activity (Papaver rhoeas; 20 DAT, PAPRH, Ex. 26 solo 125 gai/ha): 0%
- % activity (Papaver rhoeas; 20 DAT, PAPRH, Ex. 26 solo 250 gai/ha): 20%
- % activity (Papaver rhoeas; 21 DAT, Ex. 26 solo 125 gai/ha): 0%
- % activity (Papaver rhoeas; 21 DAT, Ex. 26 solo 250 gai/ha): 0%
- % activity (Papaver rhoeas; Ex. 26 solo 62.5 gai/ha, 20 DAT, PAPRH (pyridate table)): 0%
- % activity (Papaver rhoeas; Ex. 26 solo 62.5 gai/ha, 20 DAT, PAPRH (pyroxsulam table)): 0%
- % activity (Papaver rhoeas; Ex. 26 solo 62.5 gai/ha, 21 DAT, PAPRH): 0%
- % activity (Papaver rhoeas; Ex. 26 solo 125 gai/ha, 20 DAT, PAPRH (pyridate table)): 0%
- % activity (Papaver rhoeas; Ex. 26 solo 125 gai/ha, 20 DAT, PAPRH (pyroxsulam table)): 0%
- % activity (Papaver rhoeas; Ex. 26 solo 250 gai/ha, 20 DAT, PAPRH (pyridate table)): 45%
- % activity (Papaver rhoeas; Ex. 26 solo 250 gai/ha, 20 DAT, PAPRH (pyroxsulam table)): 0%
- % activity (Papaver rhoeas; Ex. 26 solo 250 gai/ha, 21 DAT, PAPRH): 0%
- % activity (Papaver rhoeas; Ex. 26 solo, 125 gai/ha, 21 DAT, PAPRH): 0%
- % activity (Papaver rhoeas; Ex. 26 solo, 250 gai/ha, 21 DAT, PAPRH): 15%
- % activity (Papaver rhoeas; PAPRH, Ex. 26 solo 62.5 gai/ha, 20 DAT): 0%
- % activity (Papaver rhoeas; PAPRH, Ex. 26 solo 125 gai/ha, 20 DAT): 0%
- % activity (Avena fatua [2]; 20 DAT, AVEFA, Ex. 26 solo 62.5 gai/ha): 65%
- % activity (Avena fatua [2]; [3]): 75%
- % activity (Avena fatua [2]; 20 DAT, AVEFA, Ex. 26 solo 250 gai/ha): 75%
- % activity (Avena fatua [2]; [6]): 35%
- % activity (Avena fatua [2]; 20 DAT, Ex. 26 solo 250 gai/ha): 70%
- % activity (Avena fatua [2]; AVEFA, 21 DAT, solo Ex. 26 62.5 gai/ha): 70%
- % activity (Avena fatua [2]; AVEFA, 21 DAT, solo Ex. 26 125 gai/ha): 70%
- % activity (Avena fatua [2]; [4]): 70%
- % activity (Avena fatua [2]; [5]): 75%
- % activity (Avena fatua [2]; Ex. 26 solo 62.5 gai/ha, 20 DAT, AVEFA): 65%
- % activity (Avena fatua [2]; Ex. 26 solo 62.5 gai/ha, 21 DAT, AVEFA): 50%
- % activity (Avena fatua [2]; Ex. 26 solo 125 gai/ha, 20 DAT, AVEFA): 70%
- % activity (Avena fatua [2]; Ex. 26 solo 250 gai/ha, 20 DAT, AVEFA): 75%
- % activity (Avena fatua [2]; Ex. 26 solo, 125 gai/ha, 20 DAT, AVEFA): 65%
- % activity (Avena fatua [2]; Ex. 26 solo, 125 gai/ha, 21 DAT, AVEFA): 70%
- % activity (Avena fatua [2]; Ex. 26 solo, 250 gai/ha, 20 DAT, AVEFA): 85%
- % activity (Matricaria chamomilla; [6]): 0%
- % activity (Matricaria chamomilla; 20 DAT, Ex. 26 solo 125 gai/ha): 0%
- % activity (Matricaria chamomilla; 20 DAT, Ex. 26 solo 250 gai/ha): 0%
- % activity (Matricaria chamomilla; 20 DAT, MATCH, Ex. 26 solo 62.5 gai/ha): 0%
- % activity (Matricaria chamomilla; 20 DAT, MATCH, Ex. 26 solo 125 gai/ha): 0%
- % activity (Matricaria chamomilla; 20 DAT, MATCH, Ex. 26 solo 250 gai/ha): 0%
- % activity (Matricaria chamomilla; 21 DAT, Ex. 26 solo 250 gai/ha): 0%
- % activity (Matricaria chamomilla; Ex. 26 solo 62.5 gai/ha, 20 DAT, MATCH (pyridate table)): 0%
- % activity (Matricaria chamomilla; Ex. 26 solo 62.5 gai/ha, 20 DAT, MATCH (pyroxsulam table)): 0%
- % activity (Matricaria chamomilla; Ex. 26 solo 125 gai/ha, 20 DAT, MATCH (pyridate table)): 0%
- % activity (Matricaria chamomilla; Ex. 26 solo 125 gai/ha, 20 DAT, MATCH (pyroxsulam table)): 0%
- % activity (Matricaria chamomilla; Ex. 26 solo 250 gai/ha, 20 DAT, MATCH (pyridate table)): 0%
- % activity (Matricaria chamomilla; Ex. 26 solo 250 gai/ha, 20 DAT, MATCH (pyroxsulam table)): 30%
- % activity (Matricaria chamomilla; Ex. 26 solo 250 gai/ha, 21 DAT, MATCH): 0%
- % activity (Matricaria chamomilla; Ex. 26 solo, 125 gai/ha, 20 DAT, MATCH): 0%
- % activity (Matricaria chamomilla; Ex. 26 solo, 250 gai/ha, 20 DAT, MATCH): 0%
- % activity (Matricaria chamomilla; Ex. 26 solo, 250 gai/ha, 21 DAT, MATCH): 20%
